Laboratory results published in the NIST ThermoML archive (doi:10.1016/j.jct.2017.07.018).

Conditions: for vapor or sublimation pressure: Liquid, Gas chromatography

C=CC(C)(O)CC/C=C(\C)CCC=C(C)C (centres undefined) [(E)-3,7,11-trimethyldodeca-1,6,10-trien-3-ol]
Conditions	vapor or sublimation pressure [kPa]
298.15 K	6e-05
310 K	0.00024
320 K	0.00074
330 K	0.0021
340 K	0.0053
350 K	0.013
360 K	0.028
370 K	0.058
380 K	0.115
390 K	0.22
400 K	0.39
410 K	0.67
420 K	1.1
430 K	1.8
440 K	2.8
450 K	4.3
460 K	6.3
470 K	9.1
480 K	13
490 K	18
500 K	24
554.7 K	101.33

OC12CC3CC(CC(C3)C1)C2 [1-adamantanol]
Conditions	vapor or sublimation pressure [kPa]
298.15 K	0.0019
310 K	0.0062
320 K	0.015
330 K	0.035
340 K	0.074
350 K	0.15
360 K	0.28
370 K	0.51
380 K	0.88
390 K	1.5
400 K	2.3
410 K	3.6
420 K	5.4
430 K	7.9
440 K	11
450 K	16
460 K	22
470 K	29
480 K	38
490 K	49
500 K	62
521.2 K	101.33

C[C@@H]1CC[C@H]2C(C)(C)[C@H]3C[C@@]12CC[C@@]3(C)O [(+)-cedrol]
Conditions	vapor or sublimation pressure [kPa]
298.15 K	7e-05
310 K	0.00029
320 K	0.00084
330 K	0.0022
340 K	0.0055
350 K	0.013
360 K	0.027
370 K	0.054
380 K	0.1
390 K	0.19
400 K	0.33
410 K	0.55
420 K	0.89
430 K	1.4
440 K	2.1
450 K	3.1
460 K	4.5
470 K	6.3
480 K	8.7
490 K	12
500 K	16
583.5 K	101.33

Conditions	Normal melting temperature [°C]
Crystal, visual observation	86.00

C=CC(C)(O)CC/C=C(/C)CCC=C(C)C (centres undefined) [(Z)-3,7,11-trimethyldodeca-1,6,10-trien-3-ol]
Conditions	vapor or sublimation pressure [kPa]
298.15 K	7.5e-05
310 K	0.00032
320 K	0.001
330 K	0.0026
340 K	0.0067
350 K	0.016
360 K	0.034
370 K	0.071
380 K	0.14
390 K	0.26
400 K	0.46
410 K	0.79
420 K	1.3
430 K	2.1
440 K	3.3
450 K	4.9
460 K	7.2
470 K	10
480 K	15
490 K	20
500 K	27
550.3 K	101.33
